Data published in US6344576B1, “Phospholipid-analogous compounds” (Max-Planck-Gesellschaft zur Förderung der Wissenschaften …, priority 1997, dated 2002).

Columns and labels:
[1] = Use as solubilizer for substances of low solubility in water
[2] = Behaviour in water (solubility, gel formation, suitability for intravenous administration); format: physicochemical

gel formation in water [2]	Compound	suitability as solubilizer for substances of low solubility in water [1]
	1,2-Dioleoyl-sn-glycero-3-phospho-N,N-dimethyl-N-dihydroxypropyl-ethylammonium [Example 14]	proved useful
forms gel-like structures in water	CCCCCCCC/C=C\CCCCCCCCCCCCOP(=O)([O-])OCC[N+](C)(C)C [Erucylphosphocholine]	
	CCCCCCCC/C=C\CCCCCCCC(=O)OC[C@H](COP(=O)([O-])OCCC[N+](C)(C)C)OC(=O)CCCCCCC/C=C\CCCCCCCC [Example 85, 1,2-Dioleoyl-sn-glycero-3-phospho-N,N,N-trimethyl-propylammonium]	proved useful
	CCCCCCCC/C=C\CCCCCCCCCCCC(=O)OC[C@@H](O)COP(=O)([O-])OCCC[N+](C)(C)C [Example 139, 1-Erucoyl-sn-glycero-3-phospho-N,N,N-trimethyl-propylammonium]	proved useful
